In patent US20160257697A1, “THIOPHENE-SUBSTITUTED TETRACYCLIC COMPOUNDS AND METHODS OFUSE THEREOF FOR THE TREATMENT OF VIRAL DISEASES” (priority 2013, published 2016):
Read-outs that look alike come from different tables or passages of the source.

Tests used:
Test in all cases: microbe, parasite or virus in culture
Assay type in all cases: cell-based, Hepatitis C virus (HCV)
HCV replicon 1AY93H = details: Replicon Assay A
Summary of the method: (§1)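 HCV replicon RNA levels were quantified by TaqMan RT-PCR after 3-day compound exposure (0.5% DMSO, 5% FBS). Cyclophilin RNA, co-amplified in the same reaction, served as endogenous control; Ct values were converted to RNA amounts using linear regression standard curves.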

HCV replicon 1A = details: HCV replicon 1A, Replicon Assay A
Summary of the method: as §1

HCV replicon 2B = details: Replicon Assay A
Summary of the method: as §1

HCV replicon 1AQ30D = details: Replicon Assay B
HCV replicon 1B = details: HCV replicon 1B, Replicon Assay B
[1] = read-out: 1A Y93H IC50, HCV replicon 1A Y93H
[2] = read-out: 2B IC50, HCV replicon 2B
[3] = read-out: 1A Q30D IC50, HCV replicon 1A Q30D
[4] = Hepatitis C virus, read-out: 1A Q30D IC50, HCV replicon 1A Q30D

| SMILES | IC50 (HCV replicon 1AY93H; [1]) | IC50 (HCV replicon 1A) | IC50 (HCV replicon 2B; [2]) | IC50 (HCV replicon 1AQ30D; [3]) | IC50 (HCV replicon 1B) | IC50 (HCV replicon 1AY93H; Hepatitis C virus, read-out: 1A Y93H IC50, HCV replicon 1A Y93H) | IC50 (HCV replicon 1A; Hepatitis C virus) | IC50 (HCV replicon 2B; Hepatitis C virus, read-out: 2B IC50, HCV replicon 2B) | IC50 (HCV replicon 1AQ30D; [4]) | IC50 (HCV replicon 1B; Hepatitis C virus) | IC50 (HCV replicon 1AY93H; HCV replicon 1A Y93H, read-out: 1A Y93H IC50) | IC50 (HCV replicon 2B; HCV replicon 2B, read-out: 2B IC50) | IC50 (HCV replicon 1AQ30D; HCV replicon 1A Q30D, read-out: 1A Q30D IC50) |
| --- | --- | --- | --- | --- | --- | --- | --- | --- | --- | --- | --- | --- | --- |
| COC(=O)N[C@H](C(=O)N1C2CC2C[C@H]1c1ncc(-c2cc(F)c3c(c2)OC(c2ccc(C4CC4)s2)n2c-3cc3cc(-c4cnc([C@@H]5CCCN5C(=O)[C@@H](NC(=O)OC)C5C[C@@H](C)O[C@@H](C)C5)[nH]4)ccc32)[nH]1)C(C)C (single isomer, unassigned) [Compound 557] | 0.00464 nM | 0.00311 nM | 0.0151 nM | 0.041 nM | 0.00249 nM | – | – | – | – | – | – | – | – |
| CCc1ccc(C2Oc3cc(-c4cnc([C@@H]5CCCN5C(=O)[C@@H](NC(=O)OC)C(C)C)[nH]4)cc(C)c3-c3cc4cc(-c5cnc([C@@H]6CCCN6C(=O)[C@@H](NC(=O)OC)C6CCOCC6)[nH]5)ccc4n32)s1 (single isomer, unassigned) [Compound 560] | – | – | – | – | – | 0.13 nM | 0.0071 nM | 0.0516 nM | 1.56 nM | 0.00993 nM | – | – | – |
| CCc1ccc(C2Oc3cc(-c4cnc([C@@H]5CCCN5C(=O)[C@@H](NC(=O)OC)C(C)C)[nH]4)ccc3-c3c(F)c4cc(-c5cnc([C@@H]6CCCN6C(=O)[C@@H](NC(=O)OC)C(C)C)[nH]5)ccc4n32)s1 (single isomer, unassigned) [Compound 602] | 0.066 nM | 0.001 nM | 0.143 nM | – | – | – | – | – | 0.597 nM | 0.0017 nM | – | – | – |
| COC(=O)N[C@H](C(=O)N1CCC[C@H]1c1ncc(-c2ccc3c(c2)OC(c2ccc(C4CC4)s2)n2c-3c(F)c3cc(-c4cnc([C@@H]5CCCN5C(=O)[C@@H](NC(=O)OC)C(C)C)[nH]4)ccc32)[nH]1)C(C)C (single isomer, unassigned) [Compound 604] | 0.0318 nM | – | 0.0624 nM | – | 0.0011 nM | – | 0.0013 nM | – | 0.704 nM | – | – | – | – |
| COC(=O)N[C@H](C(=O)N1CCC[C@H]1c1ncc(-c2ccc3c(c2)OC(c2ccc(C4CC4)s2)n2c-3c(F)c3cc(-c4cnc([C@@H]5C[C@H]6C[C@H]6N5C(=O)[C@@H](NC(=O)OC)C(C)C)[nH]4)ccc32)[nH]1)C(C)C (single isomer, unassigned) [Compound 611] | 0.0115 nM | – | 0.183 nM | 0.443 nM | – | – | 0.0019 nM | – | – | 0.0014 nM | – | – | – |
| COC(=O)N[C@H](C(=O)N1CCC[C@H]1c1ncc(-c2ccc3c(c2)OC(c2ccc(C4CC4)s2)n2c-3c(F)c3cc(-c4cnc([C@@H]5C[C@H]6C[C@H]6N5C(=O)[C@@H](NC(=O)OC)C(C)C)[nH]4)ccc32)[nH]1)C(C)C (single isomer, unassigned) [Compound 613] | 0.0157 nM | 0.0025 nM | 0.342 nM | 0.992 nM | 0.0023 nM | – | – | – | – | – | – | – | – |
| COC(=O)N[C@H](C(=O)N1CCC[C@H]1c1ncc(-c2cc(F)c3c(c2)OC(c2cc4ccccc4s2)n2c-3cc3cc(-c4cnc([C@@H]5C[C@H]6C[C@H]6N5C(=O)[C@@H](NC(=O)OC)C(C)C)[nH]4)ccc32)[nH]1)C(C)C (single isomer, unassigned) [Compound 615] | 0.045 nM | 0.0023 nM | 1.08 nM | – | – | – | – | – | 0.844 nM | 0.0019 nM | – | – | – |
| COC(=O)N[C@H](C(=O)N1CCC[C@H]1c1ncc(-c2cc(F)c3c(c2)OC(c2cc4ccccc4s2)n2c-3cc3cc(-c4cnc([C@@H]5C[C@H]6C[C@H]6N5C(=O)[C@@H](NC(=O)OC)C(C)C)[nH]4)ccc32)[nH]1)C(C)C (single isomer, unassigned) [Compound 616] | 0.0205 nM | 0.0029 nM | 0.266 nM | 0.538 nM | 0.002 nM | – | – | – | – | – | – | – | – |
| COC(=O)N[C@H](C(=O)N1CCC[C@H]1c1ncc(-c2cc(F)c3c(c2)OC(c2cc4c(s2)CCC4)n2c-3cc3cc(-c4cnc([C@@H]5CCCN5C(=O)[C@@H](NC(=O)OC)C5CCOCC5)[nH]4)ccc32)[nH]1)C(C)C (single isomer, unassigned) [Compound 620] | 0.0059 nM | – | 0.0102 nM | – | – | – | 0.0023 nM | – | 0.114 nM | 0.0019 nM | – | – | – |
| COC(=O)N[C@H](C(=O)N1CCC[C@H]1c1ncc(-c2cc(F)c3c(c2)OC(c2cc4c(s2)CCC4)n2c-3cc3cc(-c4cnc([C@@H]5CCCN5C(=O)[C@@H](NC(=O)OC)C5CCOCC5)[nH]4)ccc32)[nH]1)C(C)C (single isomer, unassigned) [Compound 622] | 0.0044 nM | 0.0024 nM | 0.0068 nM | 0.0594 nM | 0.0022 nM | – | – | – | – | – | – | – | – |
| COC(=O)N[C@H](C(=O)N1C[C@H](F)C[C@H]1c1ncc(-c2ccc3c(c2)cc2n3C(c3cc4ccccc4s3)Oc3cc(-c4cnc([C@@H]5CCCN5C(=O)[C@@H](NC(=O)OC)C5CCOCC5)[nH]4)ccc3-2)[nH]1)C(C)C (single isomer, unassigned) [Compound 625] | 0.0049 nM | 0.0019 nM | 0.145 nM | – | – | – | – | – | 0.359 nM | 0.0031 nM | – | – | – |
| CCc1ccc(C2Oc3cc(-c4cnc([C@@H]5CCCN5C(=O)[C@@H](NC(=O)OC)C(C)C)[nH]4)ccc3-c3c(F)c4cc(-c5cnc([C@@H]6CCCN6C(=O)C(NC(=O)OC)C6C[C@@H](C)O[C@@H](C)C6)[nH]5)ccc4n32)s1 (single isomer, unassigned) [Compound 634] | 0.0149 nM | 0.0023 nM | 0.027 nM | 0.237 nM | – | – | – | – | – | 0.0015 nM | – | – | – |
| CCc1ccc(C2Oc3cc(-c4cnc([C@@H]5CCCN5C(=O)[C@@H](NC(=O)OC)C(C)C)[nH]4)ccc3-c3c(F)c4cc(-c5cnc([C@@H]6CCCN6C(=O)C(NC(=O)OC)C6C[C@@H](C)O[C@@H](C)C6)[nH]5)ccc4n32)s1 (single isomer, unassigned) [Compound 635] | 0.0272 nM | 0.0024 nM | 0.0225 nM | 0.744 nM | 0.0024 nM | – | – | – | – | – | – | – | – |
| COC(=O)NC(C(=O)N1CCC[C@H]1c1ncc(-c2ccc3c(c2)cc2n3C(c3cc4ccccc4s3)Oc3cc(-c4cnc([C@@H]5CCCN5C(=O)[C@@H](NC(=O)OC)C(C)C)[nH]4)cc(F)c3-2)[nH]1)C1C[C@@H](C)O[C@@H](C)C1 (single isomer, unassigned) [Compound 640] | 0.0106 nM | – | 0.0253 nM | – | – | – | 0.0019 nM | – | 0.271 nM | 0.0011 nM | – | – | – |
| COC(=O)NC(C(=O)N1CCC[C@H]1c1ncc(-c2ccc3c(c2)cc2n3C(c3cc4ccccc4s3)Oc3cc(-c4cnc([C@@H]5CCCN5C(=O)[C@@H](NC(=O)OC)C(C)C)[nH]4)cc(F)c3-2)[nH]1)C1C[C@@H](C)O[C@@H](C)C1 (single isomer, unassigned) [Compound 641] | 0.0079 nM | 0.0033 nM | 0.0244 nM | 0.306 nM | 0.0011 nM | – | – | – | – | – | – | – | – |
| COC(=O)NC(C(=O)N1[C@@H]2C[C@@H]2C[C@H]1c1ncc(-c2ccc3c(c2)c(F)c2n3C(c3ccc(C4CC4)s3)Oc3cc(-c4cnc([C@@H]5CCCN5C(=O)[C@@H](NC(=O)OC)C(C)C)[nH]4)ccc3-2)[nH]1)C1C[C@@H](C)O[C@@H](C)C1 (single isomer, unassigned) [Compound 644] | 0.005 nM | 0.00257 nM | 0.0272 nM | 0.0889 nM | – | – | – | – | – | 0.0013 nM | – | – | – |
| COC(=O)NC(C(=O)N1[C@@H]2C[C@@H]2C[C@H]1c1ncc(-c2ccc3c(c2)c(F)c2n3C(c3ccc(C4CC4)s3)Oc3cc(-c4cnc([C@@H]5CCCN5C(=O)[C@@H](NC(=O)OC)C(C)C)[nH]4)ccc3-2)[nH]1)C1C[C@@H](C)O[C@@H](C)C1 (single isomer, unassigned) [Compound 645] | 0.0222 nM | 0.0026 nM | 0.0686 nM | 0.25 nM | 0.0024 nM | – | – | – | – | – | – | – | – |
| COC(=O)NC(C(=O)N1CCC[C@H]1c1ncc(-c2ccc3c(c2)cc2n3C(c3ccc(C(F)(F)F)s3)Oc3cc(-c4cnc([C@@H]5CCCN5C(=O)[C@@H](NC(=O)OC)C(C)C)[nH]4)cc(F)c3-2)[nH]1)C1C[C@@H](C)O[C@@H](C)C1 (single isomer, unassigned) [Compound 649] | – | 0.002 nM | – | – | 0.0012 nM | – | – | – | – | – | 0.24 nM | 0.253 nM | 0.41 nM |
